Patent US20260014170A1, “PRODRUGS FOR DELIVERY OF TE[…] THE CENTRAL NERVOUS SYSTEM” (The Johns Hopkins University, priority 2022, published 2026)

Tests used:
[1] = In vitro metabolic stability in rat brain homogenates; type: in vitro ADME; settings: 10 μM, 37° C., 0 hour to 1 hour, n=3
Method: In vitro metabolic stability assessment was performed using brain homogenates. For the brain homogenates washed tissues were diluted 10-fold in 0.1-M potassium phosphate buffer and homogenized using a probe sonicator. […] Samples from each incubation at predetermined time points (0, 0.5, and 1h) were quenched with 3X volumes of acetonitrile containing the internal standard (IS; losartan: 0.5 μm). […] Disappearance of the intact compound and release of Testosterone were measured using liquid chromatography tandem mass spectrometry (LC-MS; full scan mode).
The metabolic stability of prodrugs (n=3) was evaluated using rat brain homogenates. The rat brain was homogenized using 100-mM phosphate buffer with 1:10 dilution (w/v). 10 μM concentration of the compounds was incubated at 37° C. and stability was evaluated from 0 hour to 1 hour. After incubation samples were precipitated using acetonitrile containing internal standard and quantified using high-resolution LC-MS/MS.

[2] = female rats, IN, 1.1 mg/kg equivalent of Testosterone, 1h post dose
Method: All prodrugs were administered intranasally (IN) at a dose of 1.1 mg/kg equivalent of Testosterone using a formulation of 5% Tween-80, 5% DMSO and 90% PBS containing 10 mM HEPES. Blood and brain were collected after sacrificing the animals at predetermined time point. Plasma was harvested from blood by centrifugation at 3,000 RPM for 15 min and stored at −80° C. Brain tissues were harvested following blood collection and immediately snap frozen in liquid nitrogen and stored at −80° C. until LC-MS/MS analysis. Calibration standards were prepared using naïve female rat plasma or brain with additions of respective prodrugs. For quantifying the released testosterone in the pharmacokinetic samples, plasma samples (20 μL) were processed by protein precipitation method by addition of 200 μL of acetonitrile containing internal standard (losartan: 0.5 μM), followed by vortex-mixing for 30 s and then centrifugation at 10,000 RPM for 10 min at 4° C. Brain tissues were diluted 1:5 w/v with acetonitrile containing losartan (0.5 μm) and homogenized, followed by vortex-mixing and centrifugation at 10,000 RPM for 10 min at 4° C. A 50 μL aliquot of the supernatant was diluted with 50 μL of water and transferred to 250 μL polypropylene autosampler vials sealed with teflon caps. Then, 2 μL of the sample was injected into the LC-MS/MS system for analysis.
The in vivo pharmacokinetics of prodrugs (P1, P3, P4, P5, P6, P7, P8, P9, P10, P11, P12, P13 and P14) were evaluated in female rats.

SMILES	stability in rat brain homogenate [1]	levels of testosterone release [2]	plasma levels compared with testosterone [2]	stable in brain homogenate [1]
CN1CCN(CC(=O)O[C@H]2CC[C@H]3[C@@H]4CCC5=CC(=O)CC[C@]5(C)[C@H]4CC[C@]23C)CC1 [Prodrug P5, (8R,9S,10R,13S,14S,17S)-10,13-Dimethyl-3-oxo-2,3,6,7,8,9,10,11,12,13,14,15,16,17-tetradecahydro-1H-cyclopenta[α]phenanthren-17-yl 2-(4-methylpiperazin-1-yl)acetate]	stable	low levels	–	–
CC(C)C[C@H](NC(=O)CN(C)C)C(=O)O[C@H]1CC[C@H]2[C@@H]3CCC4=CC(=O)CC[C@]4(C)[C@H]3CC[C@]12C [Prodrug P11, (8R,9S,10R,13S,14S,17S)-10,13-Dimethyl-3-oxo-2,3,6,7,8,9,10,11,12,13,14,15,16,17-tetradecahydro-1H-cyclopenta[α]phenanthren-17-yl dimethylglycyl-L-leucinate]	stable	–	–	–
CN(C)CC(=O)N[C@@H](Cc1ccccc1)C(=O)O[C@H]1CC[C@H]2[C@@H]3CCC4=CC(=O)CC[C@]4(C)[C@H]3CC[C@]12C [Prodrug P12, (8R,9S,10R,13S,14S,17S)-10,13-Dimethyl-3-oxo-2,3,6,7,8,9,10,11,12,13,14,15,16,17-tetradecahydro-1H-cyclopenta[α]phenanthren-17-yl dimethylglycyl-L-phenylalaninate]	stable	–	lower	–
CC(C)OC(=O)OCO[C@H]1CC[C@H]2[C@@H]3CCC4=CC(=O)CC[C@]4(C)[C@H]3CC[C@]12C [Prodrug P1, (((8R,9S,10R,13S,14S,17S)-10,13-Dimethyl-3-oxo-2,3,6,7,8,9,10,11,12,13,14,15,16,17-tetradecahydro-1H-cyclopenta[α]phenanthren-17-yl)oxy)methyl isopropyl carbonate]	–	–	lower	20%
CC(=O)N[C@@H](CCC(=O)O[C@H]1CC[C@H]2[C@@H]3CCC4=CC(=O)CC[C@]4(C)[C@H]3CC[C@]12C)C(=O)O [Prodrug P13, (S)-2-Acetamido-5-(((8R,9S,10R,13S,14S,17S)-10,13-dimethyl-3-oxo-2,3,6,7,8,9,10,11,12,13,14,15,16,17-tetradecahydro-1H-cyclopenta[α]phenanthren-17-yl)oxy)-5-oxopentanoic acid]	stable	low levels	–	–
CC(C)[C@H](N)C(=O)N[C@@H](C(=O)O[C@H]1CC[C@H]2[C@@H]3CCC4=CC(=O)CC[C@]4(C)[C@H]3CC[C@]12C)C(C)C [Prodrug P4, (8R,9S,10R,13S,14S,17S)-10,13-Dimethyl-3-oxo-2,3,6,7,8,9,10,11,12,13,14,15,16,17-tetradecahydro-1H-cyclopenta[α]phenanthren-17-yl L-valyl-D-valinate]	–	low levels	–	–
CN(C)CC(=O)NCC(=O)O[C@H]1CC[C@H]2[C@@H]3CCC4=CC(=O)CC[C@]4(C)[C@H]3CC[C@]12C [Prodrug P8, (8R,9S,10R,13S,14S,17S)-10,13-Dimethyl-3-oxo-2,3,6,7,8,9,10,11,12,13,14,15,16,17-tetradecahydro-1H-cyclopenta[α]phenanthren-17-yl dimethylglycylglycinate]	stable	low levels	–	–
C[C@]12CC[C@H]3[C@@H](CCC4=CC(=O)CC[C@@]43C)[C@@H]1CC[C@@H]2OC(=O)C(Cl)Cl [Prodrug P7, (8R,9S,10R,13S,14S,17S)-10,13-Dimethyl-3-oxo-2,3,6,7,8,9,10,11,12,13,14,15,16,17-tetradecahydro-1H-cyclopenta[α]phenanthren-17-yl 2,2-dichloroacetate]	moderately stable	–	–	–
C[C@]12CC[C@H]3[C@@H](CCC4=CC(=O)CC[C@@]43C)[C@@H]1CC[C@@H]2OC(=O)CNC(=O)CN [Prodrug P10, (8R,9S,10R,13S,14S,17S)-10,13-Dimethyl-3-oxo-2,3,6,7,8,9,10,11,12,13,14,15,16,17-tetradecahydro-1H-cyclopenta[α]phenanthren-17-yl glycylglycinate]	moderately stable	–	–	–
CN(C)CC(=O)NCC(=O)NCC(=O)O[C@H]1CC[C@H]2[C@@H]3CCC4=CC(=O)CC[C@]4(C)[C@H]3CC[C@]12C [Prodrug P9, (8R,9S,10R,13S,14S,17S)-10,13-Dimethyl-3-oxo-2,3,6,7,8,9,10,11,12,13,14,15,16,17-tetradecahydro-1H-cyclopenta[α]phenanthren-17-yl dimethylglycylglycylglycinate]	stable	–	–	–
C[C@]12CC[C@H]3[C@@H](CCC4=CC(=O)CC[C@@]43C)[C@@H]1CC[C@@H]2OC(=O)CC[C@H](N)C(=O)O [Prodrug P14, (S)-2-Amino-5-(((8R,9S,10R,13S,14S,17S)-10,13-dimethyl-3-oxo-2,3,6,7,8,9,10,11,12,13,14,15,16,17-tetradecahydro-1H-cyclopenta[α]phenanthren-17-yl)oxy)-5-oxopentanoic acid]	stable	low levels	–	–
CN(C)CC(=O)O[C@H]1CC[C@H]2[C@@H]3CCC4=CC(=O)CC[C@]4(C)[C@H]3CC[C@]12C [Prodrug P3, (8R,9S,10R,13S,14S,17S)-10,13-Dimethyl-3-oxo-2,3,6,7,8,9,10,11,12,13,14,15,16,17-tetradecahydro-1H-cyclopenta[α]phenanthren-17-yl dimethylglycinate]	moderately stable	–	lower	–
C[C@]12CC[C@H]3[C@@H](CCC4=CC(=O)CC[C@@]43C)[C@@H]1CC[C@@H]2OC(=O)CN1CCOCC1 [Prodrug P6, (8R,9S,10R,13S,14S,17S)-10,13-Dimethyl-3-oxo-2,3,6,7,8,9,10,11,12,13,14,15,16,17-tetradecahydro-1H-cyclopenta[α]phenanthren-17-yl 2-morpholinoacetate]	stable	low levels	–	–
